Test results published in patent US7534769B2, “Compositions and methods for enhancing delivery of therapeutic agents to cells” (Canji, Inc., priority 1996, dated 2009).

Key:
[1] = test system: bladder, kidney and liver homogenates; assay: ACNRB transgene expression by RT-PCR after intravesical administration; assay type: in vivo, mouse; details: ACNRB 4×10^10 PN/mL in 22% (v/v) ethanol or 3 mM Big CHAP versus VPBS, 48 hours
Procedure: After the virus was retained in the bladder for 45 minutes, the animals were permitted to recover and void. […] Following amplification (30 cycles) RT-PCR products were separated on a 10% polyacrylamide gel, stained with ethidium bromide, and photographed. […] Untreated samples and bladder samples without the reverse transcriptase (RT) provided controls for contaminating DNA.
The instilled material was retained in the bladder for approximately 45 minutes, and animals were permitted to recover from the procedure. Mice were sacrificed 1, 2, 3, 4, 5, 6, 7, and 14 days after administration (N=4/time) for analysis. Bladders, livers, and kidneys were harvested and snap frozen in liquid nitrogen for subsequent analysis.
After the virus was retained in the bladder for 45 minutes, the animals were permitted to recover. […] Transgene expression was determined using RT-PCR. Tissues were rinsed in RNAse free water, homogenized, digested in Tri-Reagent (Molecular Research Center), and total cellular RNA extracted. […] RT-PCR was performed in the Perkin Elmer 9600 GeneAmp PCR System. Cycling conditions were 10 min at 65° C., 8 min at 50° C., 5 min at 95° C. 32 cycles of PCR were performed, each cycle consisting of 30 sec at 94° C., 30 sec at 58° C., and 30 sec at 72° C. The 32nd cycle included a 10 min elongation step at 72° C. to ensure full extension of incomplete DNA fragments.

bladder epithelium [2] = assay: rAd-βgal gene transfer to bladder epithelium in detergent formulations, Xgal staining score and gross pathology
Procedure: rAd-βgal was formulated in different detergents at their critical micellization concentration to evaluate efficiency of gene transfer to the bladder epithelium. Female rats (about 200 g b/w, Harlan Sprague Dawley) were anesthetized with isoflurane and received a single intravesical administration of rAd-βgal (1×10^11 PN/ml) in different detergent formulations (see Table I). Before instillation, bladders were flushed with PBS and then emptied. rAd-βgal was then instilled in a volume of 0.5 ml. The instilled solution was retained in the bladder for 45 minutes. The bladders were then flushed with PBS, and the animals were permitted to recover from the procedure. 48 hours after administration, the rats were sacrificed, the bladders harvested, and fixed in formalin. After fixation, the bladders were opened longitudinally so that the urothelium was exposed to the chromogen (Xgal), that is converted to a blue color, if reporter gene (β-galactosidase) expression is present. The luminal epithelial surface of the whole bladder was photographed an blue staining scored: + (minimal staining), ++ (moderate staining), +++ intense staining covering the whole bladder epithelial surface.
Briefly, in anaesthetized female rats rAd-βgal (1×10^11 PN/ml) was administered into the bladder via an intravesical catheter. rAd-βgal was formulated in different concentrations of Big CHAP (CALBIOCHEM®). A volume of 0.5 ml was injected and remained instilled in the bladder for 45 minutes. The animals were sacrificed 48 hours later, the bladder fixed in 4% formalin/glutaraldehyde, opened longitudinally, and the β-galactosidase enzyme activity measured using Xgal substrate. The intensity of blue staining correlates with the βgal-transgene expression.
Effects of higher recombinant adenovirus concentrations were also tested. Briefly, in anaesthetized female rats different concentrations of rAd-βgal, formulated in 7 mM Big CHAP (CALBIOCHEM®) were administered into the bladder via an intravesical catheter. The animals were sacrificed 48 hours later, the bladder fixed in 4% formalin/glutaraldehyde, opened longitudinally, and Xgal stained.

bladder tissue = assay: Cystitis evaluation of formulations in mice, bladder histopathology; details: 80 μL intravesical, 7-day interval; 7 mM Big CHAP, 0.05 mM TRITON X-100 or 22% ethanol
Procedure: The formulations were administered intravesically in a volume of 80 μL, and animals were observed over a 7-day interval. After sacrifice, bladders were paraffin-embedded, sectioned, and stained with hematoxylin and eosin for pathologic evaluation.

bladder epithelium [3] = assay: Effect of Big CHAP sources, purified Big CHAP and impurities on rAd-βgal gene transfer to bladder epithelium; assay type: in vivo, rat; details: Big CHAP at 6 mg/ml
Procedure: Alternate commercial sources of Big CHAP (BC) were tested for the ability to enhance rAd (recombinant adenovirus) mediated gene transfer and expression, essentially according to the method described above in Example 8.
The results are depicted in FIG. 17.
rAd-βgal was formulated in 30 mg/ml of the column chromatography purified material of both BCs and gene transfer to the bladder epithelium tested as described above.
Three impurities of BC (CALBIOCHEM®) were detected by TLC (FIG. 15) and isolated by column chromatography for gene transfer studies. Impurity I and a mixture of impurity II and impurity III were diluted in VPBS (0.6 mg/ml or 6 mg/ml) to test their efficiency in improving rAd mediated gene transfer to the bladder epithelium. […] Positive control formulation (BC, CALBIOCHEM®, upper panel, left), and the negative control formulations (BC—CALBIOCHEM®, column chromatography purified and BC—Sigma) were used at a concentration of 6 mg/ml (upper panel, right).
In this experiment, 10 mg/ml of BC (Sigma, FIG. 20 upper middle panel) was reconstituted with Impurity III (upper right panel), impurity II (lower left panel), or synthesized analog of impurity III (lower right panel). rAd-βgal, 1×10^11 PN/ml, was prepared in the spiked formulations and administered intravesically as described above.
Calbiochem Big CHAP was fractionated by column chromatography to obtain essentially pure impurities “1”, “2”, and “3” for biological testing as well as structural analysis.

pig urothelium = assay: rAd-βgal gene transfer in chronically catheterized adult pig bladder; assay type: in vivo
Procedure: To simulate volumes expected for clinical investigation, the 7 mM Big CHAP (CALBIOCHEM®) formulation was tested in a chronically catheterized adult pig model in collaboration with SPRI Drug Safety and Metabolism. rAd-βgal (1×10^11 PN/ml) was formulated in VPBS or 7 mM Big CHAP (CALBIOCHEM®). A volume of 50 ml was injected via the catheter into the bladder of the conscious animals. The instilled material was retained for 2 hr. The animals were sacrificed 48 hr later, and a central section of the bladder was harvested and stained for β-galactosidase expression.

bladder tumor tissue = assay: Gene transfer to BBN-induced bladder tumors (transitional cell carcinoma model); assay type: in vivo, rat; details: rAd-βgal 1×10^11 PN/ml in 4 mM Big CHAP compared to VPBS, 48 hr
Procedure: Because initial investigations focused on animals with intact bladder epithelium, evaluated adenovirus mediated gene transfer in an animal model of transitional cell carcinoma was also studied. Tumors were induced in male Fisher rats by addition of 0.05% BBN in the drinking water for six months. rAd-βgal (1×10^11 PN/ml), formulated in 4 mM Big CHAP (CALBIOCHEM®) or VPBS was instilled into the bladder for 45 minutes by direct injection. β-gal expression was evaluated 48 hr after treatment. Consistent with earlier experiments using non-tumor bearing animals, gene transfer to tumor tissue was improved with the Big CHAP (CALBIOCHEM®) formulation compared to the VPBS formulation (FIG. 10).
Gene transfer of rAd carrying the p53 gene (rAd-p53) (Wills et al., Human Gene Therapy 5:1079-1088 (1994)) was also tested in this animal model of bladder cancer. Briefly, bladder tumors were induced in female Fisher rates (Charles River) by addition of 0.05% BBN (N-butyl-N-N(4-hydroxybutyl)nitrosamine) in the drinking water for three months. rAd-p53 (1×10^11 PN/ml) was formulated in 7 mM Big CHAP (CALBIOCHEM®). Under isoflurane anesthesia a catheter (24G) was inserted into the bladder for administration. rAd-p53 was instilled into the bladder for 45 minutes. The animals were then allowed to recover from anesthesia. […] No staining was detected in tumor tissue from untreated animals.

C[C@H](CCC(=O)N(CCCNC(=O)[C@H](O)[C@@H](O)[C@H](O)[C@H](O)CO)CCCNC(=O)[C@H](O)[C@@H](O)[C@H](O)[C@H](O)CO)[C@H]1CC[C@H]2[C@@H]3[C@H](O)C[C@@H]4C[C@H](O)CC[C@]4(C)[C@H]3C[C@H](O)[C@]12C [Big CHAP (CALBIOCHEM®), N,N,bis-(3-D-gluconamidopropyl)-cholamide]
ACNRB expression in bladder (RT-PCR) [1]: enhanced expression
cystitis (bladder epithelium [2]; 17.5 mM Big CHAP): induced cystitis in some of the animals tested
gene transfer or expression (bladder epithelium [2]; 17.5 mM Big CHAP): did not notably improve gene transfer or expression
gene transfer (bladder epithelium [2]; 3.5-7 mM Big CHAP): significantly improved gene transfer
cystitis (bladder epithelium [2]; Big CHAP formulation that enhanced gene transfer): minimal cystitis
gene transfer to the bladder epithelium (Table I) (bladder epithelium [2]; detergents at their critical micellization concentration): enhanced gene transfer dramatically
gene transfer to the epithelium, dependence on Big CHAP concentration (bladder epithelium [2]; rAd-βgal 1×10^11 PN/ml, different concentrations of Big CHAP): concentration-dependent increase of gene transfer
β-galactosidase expression, 3.5 mM compared with 7 mM formulation (bladder epithelium [2]; rat, in vivo): similar
macrophage infiltration into the bladder tissue / cystitis (bladder tissue): Only a slight macrophage infiltration
rAd mediated gene transfer and expression (bladder epithelium [3]; listed as BC (CALBIOCHEM®)): did substantially enhance gene transfer and expression
rAd mediated gene transfer and expression (bladder epithelium [3]; listed as Big CHAP from CALBIOCHEM®): greater enhancement of gene transfer
transduction of epithelial layers (histologic evaluation) (pig urothelium; 7 mM Big CHAP): transduction of several epithelial layers
intensity of gene expression (β-galactosidase) (pig urothelium; rAd-βgal 1×10^11 PN/ml, 7 mM Big CHAP compared to VPBS, 50 ml, 2 hr, 48 hr): An increase in the intensity of gene expression
gene transfer to tumor tissue (bladder tumor tissue): improved
